Converted amounts (≈) assume the structure as drawn.

By MIC is commonly meant the lowest concentration found to suppress growth.

For test [1], the system named is Bifidobacterium animalis subsp. lactis strain NCC 362 (wild-type). The test is described as follows: E-TEST tetracycline MIC determination, FIG. 3 legend wild-type strain. Type of test: cell-based. As to conditions: FIG. 3 left panel, read-out: Resistance to tetracycline (MIC). The text has this:
(§1) In certain embodiments, the wild-type cell is resistant to a higher concentration of the antibiotic than the cell of the invention, i.e. the cell with the deleted gene. Sensitivity of a microbial cell to a particular antibiotic may be measured in any of a variety of manners. One convenient means for measuring antibiotic sensitivity to use disk diffusion assays, for example the E-test (commercially produced by AB BIODISK). The E-test system uses a predefined gradient of antibiotic concentrations on a plastic strip and can be used to determine the exact Minimum Inhibitory Concentration (MIC) of an antibiotic for a particular organism.
(§2) A commercial E-TEST (AB BIODISK) was used to determine the MIC for tetracycline of each strain.

Test [2] has as its system B. animalis subsp. lactis wild-type strain NCC 2818. Nature of the test: E-TEST (AB BIODISK) tetracycline MIC determination, wild-type strain. Type of test: cell-based, Bifidobacterium animalis subsp. lactis. As to conditions: Bifidobacterium animalis, strain NCC 2818 (wild-type, operable tetW).
Description: as §1
(§3) In certain embodiments, the wild-type cell is resistant to a higher concentration of the antibiotic than the cell that results from the methods provided. Disk diffusion assays and related sensitivity tests such as the E-test (AB BIODISK) are preferred ways of measuring the sensitivity of a cell to an antibiotic. The Minimum Inhibitory Concentration (MIC), however determined, of an antibiotic for a particular organism is a convenient way to compare relative sensitivities.
as §2

Test [3] relates to B. animalis subsp. lactis strain NCC 9034 (tetW deleted). The test is described as follows: E-TEST (AB BIODISK) tetracycline MIC determination, tetW deletion strain. Type of test: cell-based, Bifidobacterium animalis subsp. lactis.
Description: as §1, §3, §2

As for `CN(C)[C@@H]1C(O)=C(C(N)=O)C(=O)[C@@]2(O)C(O)=C3C(=O)c4c(O)cccc4[C@@](C)(O)[C@H]3C[C@@H]12` [tetracycline], the MIC in test [1] is about 16 µg/mL (≈ 36 µM); in test [2], 16 µg/mL (≈ 36 µM); in test [3] (Bifidobacterium animalis, read-out: MIC for tetracycline) it was about 0.3 µg/mL (≈ 0.675 µM). In test [3] (NCC 9034 versus NCC 2818, ratio of E-TEST MICs), the “times more sensitive to tetracycline than parent wild-type strain NCC 2818” value is “about 50 times”.

(Values after patent publication US8071353B2, “Genetic remodeling in Bifidobacterium” (Nestec S.A., priority 2007, dated 2011).)
